Results as given in patent publication US20230142981A1, “METHOD FOR IDENTIFING A MARKER FOR A BIOLOGICAL INTERACTION” (ARPEGGIO BIOSCIENCES, INC., priority 2020, published 2023).

Key:
786-O = settings: cells treated with small molecules that induce lipid peroxidation; cited from earlier work
A673 = settings: A673, cells treated with small molecules that induce lipid peroxidation; cited from earlier work
HT-1080 = settings: HT-1080, cells treated with small molecules that induce lipid peroxidation; cited from earlier work
HMOX1 [1] = experiment: RT-qPCR assay of HMOX1 expression in HT-1080 cells; type: cell-based; settings: for effect of ferrostatin-1 on induction of HMOX1: HT-1080, sodium arsenite 80 μM, hemin 5 μM, RSL3 1 μM, with or without 1 μM ferrostatin-1, four hours, normalized to DMSO control; for relative expression of HMOX1 in the absence of ferrostatin-1: HT-1080, 1 μM, four hours
Description: (§1) To confirm HMOX1 induction by the GPX4 inhibitors, an RT-qPCR assay was performed using three ferroptosis sensitive cancer cell lines: the fibrosarcoma cell line HT-1080, a Ewing's sarcoma cell line A673, and a renal clear cell carcinoma cell line 786-O. Briefly, cells were exposed to 1 μM ML162 or 1 μM RSL3 for 4 hours, RNA was isolated and an RT-qPCR assay was performed.
To further validate induction of HMOX1 mRNA expression by GPX4 inhibition, RT-qPCR was performed using varying doses of the RSL3 inhibitor. Briefly, HT-1080 cells were exposed to 5 μM RSL3, 1 μM RSL3, and 0.2 μM RSL3 for four hours, RNA was isolated and an RT-qPCR assay was performed to quantify HMOX1 expression. DMSO was used as a control exposure.
(§2) Briefly, HT-1080, A673, and 786-O cells were exposed to 1 μM ML162 or 1 μM RLS3 with or without 1 μM ferrostatin-1 for four hours, RNA was isolated and an RT-qPCR assay was performed to quantify HMOX1 expression. DMSO was used as a control exposure.
Sodium arsenite and hemin are known to be inducers of general oxidative stress in cells. Briefly, HT-1080 cells were exposed to sodium arsenite (80 μM), hemin (5 μM), ML162 (1 μM), or RSL3 (1 μM) with or without 1 μM ferrostatin-1 for four hours, RNA was isolated and an RT-qPCR assay was performed to quantify HMOX1 expression. DMSO was used as a control exposure.

[2] = test system: breast cancer cell line (MCF7); experiment: steady state RNA-seq of MCF7 cells after estradiol treatment; type: cell-based; settings: MCF7, 100 nM estradiol, 15 minutes, pval 10^−3
Description: (§3) To assess the sensitivity and dynamic range of the nascent RNA sequencing assay in gauging a cellular response to a stimulus, the performance of a steady state RNA-seq protocol was compared against a nascent RNA sequencing protocol using a breast cancer cell line (MCF7) model and estrogen treatment to elicit a well characterized, widespread transcriptional response driven by ERα and ERβ transcription factors. Briefly, cell cultures were treated with 100 nM estradiol for 15 minutes or left untreated (i.e., untreated controls) and a steady state RNA-seq protocol or the nascent RNA sequencing assay described herein above was performed.

[3] = test system: breast cancer cell line (MCF7); experiment: nascent RNA sequencing (SNAP-seq) of MCF7 cells after estradiol treatment; type: cell-based; settings: MCF7, 100 nM estradiol, 15 minutes, significance threshold pval 10^−3
Description: as §3

HMOX1 [4] = experiment: RT-qPCR assay of HMOX1 expression in 786-O cells; type: cell-based; settings: 1 μM; for relative expression of HMOX1 in the absence of ferrostatin-1: four hours, relative to ACTB
Description: as §1, §2

[5] = test system: lung fibroblast cell line IMR90; experiment: nascent RNA sequencing of IMR90 cells exposed to GPX4 inhibitors; type: cell-based; settings: IMR90, 1 μM, 1 hour, Pval 10^−3
Description: (§4) To assess the transcriptional response of a cell to inhibition of GPX4, we exposed two cell lines to two different chemical inhibitors of GPX4 (ML162 and RSL3; available from Sigma Aldrich and Apex Bio respectively) and examined the transcriptional responses using a nascent RNA sequencing protocol. Briefly, a fibrosarcoma cell line HT-1080 and a lung fibroblast cell line IMR90 were exposed to 1 μM ML162 or 1 μM RSL3 for 1 hour and the nascent RNA sequencing protocol was performed.

HMOX1 [6] = experiment: RT-qPCR assay of HMOX1 expression in A673 cells; type: cell-based; settings: A673, 1 μM; for relative expression of HMOX1 in the absence of ferrostatin-1: four hours, relative to ACTB
Description: as §1, §2

[7] = test system: fibrosarcoma cell line HT-1080; experiment: nascent RNA sequencing of HT-1080 cells exposed to GPX4 inhibitors; type: cell-based; settings: 1 hour; for number of genes with significant changes in gene transcription: 1 μM, HT-1080 compared with IMR90; for HMOX1 differential expression (nascent RNA sequencing): HT-1080, 1 μM, Pval<10^−2
Description: as §4

[8] = 4 hours, normalized to DMSO control, n=2

| Molecule | effect of ferrostatin-1 on induction of HMOX1 (HMOX1 [1]) | relative expression of HMOX1 in the absence of ferrostatin-1 (HMOX1 [1]; relative to ACTB) | relative expression of HMOX1 in the absence of ferrostatin-1 (HMOX1 [4]) | HMOX1 differential expression (nascent RNA sequencing) [5] | relative expression of HMOX1 in the absence of ferrostatin-1 (HMOX1 [6]) | number of genes with significant changes in gene transcription [7] | HMOX1 differential expression (nascent RNA sequencing) [7] | also measured |
| --- | --- | --- | --- | --- | --- | --- | --- | --- |
| CCOC(=O)c1ccc(NC2CCCCC2)c(N)c1 [ferrostatin-1] | – | – | – | – | – | – | – | rescue of cellular viability (ferroptosis-protective effect) (786-O): ferroptosis-protective effect has been observed; rescue of cellular viability (ferroptosis-protective effect) (A673): ferroptosis-protective effect has been observed; rescue of cellular viability (ferroptosis-protective effect) (HT-1080): ferroptosis-protective effect has been observed |
| O=[As]O [sodium arsenite] | not affected by the presence of ferrostatin-1 | – | – | – | – | – | – | – |
| C[C@]12CC[C@@H]3c4ccc(O)cc4CC[C@H]3[C@@H]1CC[C@@H]2O [estradiol] | – | – | – | – | – | – | – | number of differentially expressed genes (estradiol/untreated), steady-state RNA-seq [2]: 8; number of differentially expressed genes (estradiol/untreated), nascent RNA sequencing (SNAP-seq) [3]: 762 |
| hemin | not affected by the presence of ferrostatin-1 | – | – | – | – | – | – | – |
| COC(=O)c1ccc([C@@H]2c3[nH]c4ccccc4c3C[C@@H](C(=O)OC)N2C(=O)CCl)cc1 [RSL3] | dependent on lipid peroxidation | HMOX1 expression was observed | HMOX1 expression was observed | strongly differentially expressed | HMOX1 expression was observed | greater in the HT-1080 cell line relative to the IMR90 cell line | strongly differentially expressed | – |
| COc1ccc(N(C(=O)CCl)C(C(=O)NCCc2ccccc2)c2cccs2)cc1Cl (stereo not drawn) [ML162] | – | HMOX1 expression was observed | HMOX1 expression was observed | strongly differentially expressed | HMOX1 expression was observed | greater in the HT-1080 cell line relative to the IMR90 cell line | strongly differentially expressed | fold induction for HMOX1 mRNA (HMOX1 [1]; 1 µM): induced; relative expression of HMOX1 in the presence of ferrostatin-1 (HMOX1 [1]; HT-1080, 1 μM with 1 μM ferrostatin-1, four hours, relative to ACTB): induced HMOX1 even in the presence of ferrostatin-1; fold induction for HMOX1 mRNA (HMOX1 [4]; [8]): induced; fold induction for HMOX1 mRNA (HMOX1 [6]; [8]): induced |
